Among the data in patent US9938276B2, “6,5-bicyclic octahydropyrrolopyridine orexin receptor antagonists” (Merck Sharp & Dohme Corp., priority 2014, dated 2018) are IC50 values, retold here.

For assay [1], the target named is hOX1R (Homo sapiens, UniProt O43613). Nature of the assay: hOX1R FLIPR Ca2+ flux assay. The following applies: CHO cells expressing the receptor; agonist 70 pM Ala-6,12 human orexin-A. In kind it is cell-based. (Calcium flux is commonly read through the fluorescence of an indicator in the cells.)
Assay [2] deals with human orexin-2 receptor (Homo sapiens (Human), UniProt O43614). Nature of the assay: hOX2R FLIPR Ca2+ flux assay. In kind it is cell-based. The following applies: CHO cells expressing the receptor; agonist 70 pM Ala-6,12 human orexin-A. As to the method:
In a typical experiment the OX1 and OX2 receptor antagonistic activity of the compounds of the present invention was determined in accordance with the following experimental method. For intracellular calcium measurements, Chinese hamster ovary (CHO) cells expressing the rat orexin-1 receptor or the human orexin-2 receptor, are grown in Iscove's modified DMEM containing 2 mM L-glutamine, […], 1% hypoxanthine-thymidine supplement, 100 U/ml penicillin, 100 μg/ml streptomycin and 10% heat-inactivated fetal calf serum (FCS). The cells are seeded at 20,000 cells/well into Becton-Dickinson black 384-well clear bottom sterile plates coated with poly-D-lysine. All reagents were from GIBCO-Invitrogen Corp. The seeded plates are incubated overnight at 37° C. and 5% CO2. Ala-6,12 human orexin-A as the agonist is prepared as a 1 mM stock solution in 1% bovine serum albumin (BSA) and diluted in assay buffer (HBSS containing 20 mM HEPES, 0.1% BSA and 2.5 mM probenecid, pH7.4) for use in the assay at a final concentration of 70 pM. Test compounds are prepared as 10 mM stock solution in DMSO, then diluted in 384-well plates, first in DMSO, then assay buffer. On the day of the assay, cells are washed 3 times with 100 μl assay buffer and then incubated for 60 min (37° C., 5% CO2) in 60 μl assay buffer containing 1 μM Fluo-4AM ester, 0.02% pluronic acid, and 1% BSA. The dye loading solution is then aspirated and cells are washed 3 times with 100 μl assay buffer. 30 μl of that same buffer is left in each well. Within the Fluorescent Imaging Plate Reader (FLIPR, Molecular Devices), test compounds are added to the plate in a volume of 25 μl, incubated for 5 min and finally 25 μl of agonist is added. Fluorescence is measured for each well at 1 second intervals for 5 minutes and the height of each fluorescence peak is compared to the height of the fluorescence peak induced by 70 pM Ala-6,12 orexin-A with buffer in place of antagonist. […] Alternatively, compound potency can be assessed by a radioligand binding assay (described in Bergman et. al. Bioorg. Med. Chem. Lett. 2008, 18, 1425-1430) in which the inhibition constant (Ki) is determined in membranes prepared from CHO cells expressing either the OX1 or OX2 receptor. The intrinsic orexin receptor antagonist activity of a compound which may be used in the present invention may be determined by these assays.

Chain of human orexin-2 receptor (O43614 whole entry): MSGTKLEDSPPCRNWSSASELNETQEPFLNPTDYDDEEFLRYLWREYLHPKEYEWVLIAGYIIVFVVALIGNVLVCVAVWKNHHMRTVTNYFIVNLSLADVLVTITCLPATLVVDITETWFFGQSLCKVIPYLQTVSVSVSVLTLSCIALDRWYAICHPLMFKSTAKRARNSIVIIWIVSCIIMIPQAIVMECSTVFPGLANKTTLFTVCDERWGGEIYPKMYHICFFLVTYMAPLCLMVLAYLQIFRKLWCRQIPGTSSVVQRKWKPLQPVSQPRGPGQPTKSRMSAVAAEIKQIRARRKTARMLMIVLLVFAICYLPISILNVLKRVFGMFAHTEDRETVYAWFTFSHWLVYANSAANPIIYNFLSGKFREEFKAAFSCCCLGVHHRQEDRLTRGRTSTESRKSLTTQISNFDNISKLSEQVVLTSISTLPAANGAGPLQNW

A word on the IC50: it is the concentration needed to halve the response being measured. As for `Cc1ccnc(N2CC[C@@H]3CCN(C(=O)c4ccccc4-n4nccn4)C[C@@H]32)c1` [Example B1, (2-(2H-1,2,3-triazol-2-yl)phenyl)((3aR,7aR)-1-(4-methylpyridin-2-yl)hexahydro-1H-pyrrolo[2,3-c]pyridin-6(2H)-yl)methanone], the results for the half-maximal inhibitory concentration (IC50) in assay [1] and in assay [2] were no less than 10 µM and 0.902 µM, respectively.

Take `COc1ccnc(N2CC[C@@H]3CCN(C(=O)c4ccccc4-n4nccn4)C[C@@H]32)c1` [Example B3, (3aR, 7aR)-(2-(2H-1,2,3-triazol-2-yl)phenyl)(1-(4-methoxypyridin-2-yl)hexahydro-1H-pyrrolo[2,3-c]pyridin-6(2H)-yl)methanone]: the IC50 in assay [1] is no less than 10 µM; in assay [2], 1.01 µM.

For the molecule `CCOc1ccnc(N2CC[C@@H]3CCN(C(=O)c4ccccc4-n4nccn4)C[C@@H]32)c1` [Example B4, (3aR, 7aR)-(2-(2H-1,2,3-triazol-2-yl)phenyl)(1-(4-ethoxypyridin-2-yl)hexahydro-1H-pyrrolo[2,3-c]pyridin-6(2H)-yl)methanone], the values for the IC50 in assay [1] and in assay [2] were no less than 10 µM and 0.766 µM, respectively.

Regarding `N#Cc1cc(N2CC[C@@H]3CCN(C(=O)c4ccccc4-n4nccn4)C[C@@H]32)ncc1F` [Example B5, 5-fluoro-2-[(3aR, 7aR)-6-{[2-(2H-1,2,3-triazol-2-yl)phenyl]carbonyl}octahydro-1H-pyrrolo[2,3-c]pyridin-1-yl]pyridine-4-carbonitrile], the IC50 in assay [1] is no less than 10 µM; in assay [2], 4.72 µM.

`N#Cc1cccc(N2CC[C@@H]3CCN(C(=O)c4ccccc4-n4nccn4)C[C@@H]32)c1` [Example B6, 3-((3aR, 7aR)-6-(2-(2H-1,2,3-triazol-2-yl)benzoyl)octahydro-1H-pyrrolo[2,3-c]pyridin-1-yl)benzonitrile]: the IC50 in assay [1] was no less than 10 µM; in assay [2], 1.73 µM.

Consider `O=C(c1ccccc1-n1nccn1)N1CC[C@H]2CCN(c3ncnc4[nH]ccc34)[C@H]2C1` [Example B7, (3aR, 7aR)-(2-(2H-1,2,3-triazol-2-yl)phenyl)(1-(7H-pyrrolo[2,3-d]pyrimidin-4-yl)hexahydro-1H-pyrrolo[2,3-c]pyridin-6(2H)-yl)methanone], for which the IC50 in assay [1] and in assay [2] was 10 µM in each case.

Turning to `O=C(c1ccccc1-n1nccn1)N1CC[C@H]2CCN(c3nccc4ncccc34)[C@H]2C1` [Example B8, 5-[(3aR, 7aR)-6-{[2-(2H-1,2,3-triazol-2-yl)phenyl]carbonyl}octahydro-1H-pyrrolo[2,3-c]pyridin-1-yl]-1,6-naphthyridine], the figures for the IC50 in assay [1] and in assay [2] were 10 µM and 2.52 µM, respectively.

For `O=C(c1ccccc1-n1nccn1)N1CC[C@H]2CCN(c3nccc4ccccc34)[C@H]2C1` [Example B9, (2-(2H-1,2,3-triazol-2-yl)phenyl)((3aR, 7aR)-1-(isoquinolin-1-yl)hexahydro-1H-pyrrolo[2,3-c]pyridin-6(2H)-yl)methanone], the values for the concentration for half-maximal inhibition (IC50) in assay [1] and in assay [2] were 1.66 µM and 0.0408 µM, respectively.

Turning to `O=C(c1ccccc1-n1nccn1)N1CC[C@H]2CCN(c3ccnc4ccccc34)[C@H]2C1` [Example B10, (2-(2H-1,2,3-triazol-2-yl)phenyl)((3aR, 7aR)-1-(quinolin-4-yl)hexahydro-1H-pyrrolo[2,3-c]pyridin-6(2H)-yl)methanone], the results for the half-inhibitory concentration (IC50) in assay [1] and in assay [2] were 10 µM and 3.43 µM, respectively.

Take `COC(=O)c1csc(N2CC[C@@H]3CCN(C(=O)c4ccccc4-n4nccn4)C[C@@H]32)n1` [Example B11, methyl 2-((3aS, 7aR)-6-(2-(2H-1,2,3-triazol-2-yl)benzoyl)octahydro-1H-pyrrolo[2,3-c]pyridin-1-yl)thiazole-4-carboxylate]: the IC50 in assay [1] and in assay [2] was 10 µM in each case.

Regarding `O=C(c1ccccc1-n1nccn1)N1CC[C@H]2CCN(c3nccn4nccc34)[C@H]2C1` [Example B13, (3aR, 7aR)-6-(2-(2H-1,2,3-triazol-2-yl)benzoyl)-1-(pyrazolo[1,5-a]pyrazin-4-yl)ocathydro-1H-pyrrolo[2,3-c]pyridin-1-ium], the IC50 was 10 µM in assay [1] and 2.02 µM in assay [2].
